The species entered for assay [1] is Homo sapiens. Nature of the assay: Binding affinity to Bcl-2 G-quadruplex DNA (unknown origin) at compound/DNA ratio 2:1 by CD spectral analysis.
The species entered for assay [2] is Homo sapiens. Nature of the assay: Binding affinity to WT 27-mer Bcl-2 G-quadruplex DNA (unknown origin) at 40 uM by electrospray ionization mass spectra analysis.
For assay [3], the species on record is Homo sapiens. Nature of the assay: Binding affinity to WT 27-mer Bcl-2 G-quadruplex DNA (unknown origin) at compound/DNA ratio 1 to 4 by CD spectral analysis.
Assay [4] is filed under the species Homo sapiens. Put plainly: Binding affinity to WT 27-mer Bcl-2 G-quadruplex DNA (unknown origin) at 5 uM by isothermal titration calorimetric assay.

Calls of active or inactive are those of the source. No cut-off for these calls is given here.

On to `C[n+]1ccc(-c2c3nc(c(-c4cc[n+](C)cc4)c4ccc([nH]4)c(-c4cc[n+](C)cc4)c4ccc([nH]4)c(-c4cc[n+](C)cc4)c4nc2C=C4)C=C3)cc1`, for which, in the assay filed under Homo sapiens [1], the outcome was Active.
As for `C[n+]1ccc(-c2c3nc(cc4ccc(cc5nc(cc6ccc2[nH]6)C=C5)[nH]4)C=C3)cc1`, the outcome in the assay listed under Homo sapiens [2] was inactive.
On to `C[n+]1ccc(-c2c3nc(c(-c4cc[n+](C)cc4)c4ccc([nH]4)c(-c4cc[n+](C)cc4)c4nc(cc5ccc2[nH]5)C=C4)C=C3)cc1`, for which the outcome in the assay filed under Homo sapiens [3], in the assay listed under Homo sapiens [4], in the assay listed under Homo sapiens [1] and in the assay filed under Homo sapiens [2] was Active.
Regarding `C[n+]1ccc(-c2c3nc(cc4ccc(cc5nc(c(-c6cc[n+](C)cc6)c6ccc2[nH]6)C=C5)[nH]4)C=C3)cc1`, in the assay listed under Homo sapiens [2], the result was inactive.
For `C[n+]1ccc(-c2c3nc(cc4ccc([nH]4)c(-c4cc[n+](C)cc4)c4nc(cc5ccc2[nH]5)C=C4)C=C3)cc1`, the outcome in the assay listed under Homo sapiens [4], in the assay filed under Homo sapiens [1] and in the assay filed under Homo sapiens [2] was Active.
